Laboratory results as given in US7037663B2, “Human zona pellucida protein 3 and uses thereof” (Eastern Virginia Medical School, priority 1998, dated 2006).

What was measured:
[1] = system: human sperm; test: Acrosome reaction of capacitated sperm by FITC/PSA with Hoechst 33258 viability stain, first series; assay type: cell-based; conditions: NT 30 ng/ml, calcium ionophore 5 μM, rhZP3 30 ng/ml, solubilized zona 0.5 ZP/μl, mean (± SEM)
Protocol: The purified rhZP3 was also applied to test its activity to induce human sperm acrosome reaction. The motile sperm obtained by swim-up procedure were allowed to capacitate in HTF/0.5% HSA for four hours at 37° C. in 5% CO2 in huminified air. The motile sperm concentration used to detect acrosome reaction was set at 2 million/ml. A series of 100 ul of capacitated sperm aliquots with different inducers were prepared in Eppendorf vials and cultured in the incubator in 95% air, 5% CO2, at 37° C. for 30 minutes. The test was conducted as follows: positive control: calcium ionophore A23187 (Sigma) at 5 μM; negative controls: 1) sperm culture medium alone, and 2) protein isolated from the culture media of non-transfected PA-1 cells (NT); test: rhZP3. Triple slides were made for each assay. Hoechst 33258 stain was used for determination of sperm viability. Fluorescein isothiocyanate conjugated Pisum sativum agglutinin (FITC/PSA) (Sigma) staining technique was employed to evaluate the acrosome reaction (Cross et al, 1986). Blind reading was required for evaluation and at least 100˜200 cells from 5 random fields were evaluated per spot on the slide. […] The results were expressed as percentage of acrosome-reacted spermatozoa in the total population counted (Cross, 1986).
In some experiments, Solubilized zona pellucida were used as control to test its function to induce sperm acrosome reaction. The solubilized zona pellucida were prepared according to Franken et al (1996). Ooplasma was removed using a small glass micropipette. A vigorous pipetting action would break their zona causing ooplasma to be spilled into surrounding medium. The chosen amount of zonae was transferred into an eppendorf tube and was centrifuged for 15 minutes at 300×g. Using a steromicroscope, the media were removed with pipette, making sure not to disturb zona. The final result was to remove maximum medium. A chosen volume (depending on the zona concentration needed) of 10 mM HCl was added. Under the microscopic vision, zona/HCl was pipetted up and down until all zona were dissolved. Then 10 mM NaOH of equal volume as the HCl was added and mixed well to obtain the stock zona solution.

[2] = system: sperm; test: Sperm motion parameters by computer analyzer; conditions: data not shown
[3] = system: human sperm; test: Acrosome reaction of live sperm by FITC-PSA, second series; assay type: cell-based; conditions: A23187 5 μM
Protocol: Determination of the acrosome reaction—The proportion of live acrosome-reacted spermatozoa incubated under capacitating conditions was determined with the fluorescent probe fluorescein isothiocyanate-labeled Pisum Sativum Agglutinin (FITC-PSA, Sigma) after staining with a supravital stain (Hoechst 33258, Sigma) following established techniques (12,13). At least 200 sperm per sample were evaluated in duplicate at 600× magnification using an epifluorescence microscope equipped with phase-contrast optics (Optiphot; Nikon, Melville, N.Y.). Slides were coded and read in a blind fashion.
A calcium ionophore agent (A23187, Sigma) tested at 5 μM and human acid solubilized zona pellucida tested at a final concentration of 4 zona/10 μl were used as positive controls (20). In further experiments, the acrosomal status was assessed by transmission electron microscopy. Spermatozoa were fixed by mixing sperm suspensions with equal volumes of 2% (v/v) glutaraldehyde (in 3 mM CaCl2 and 0.1 M sodium cacodylate); thereafter, samples were dehydrated twice and prepared for thin sectioning using previously published procedures. Ultrastructural examination was performed with a transmission electron microscope (Jeol JEM-1200 EX II, Peabody, Mass.).
Experiment 2: Characterization of the acrosome reaction inducing activity of the rhZP3 in dose- and sperm capacitation-dependency studies—Motile sperm fractions from 29 ejaculates of 11 different donors were incubated under capacitating conditions for 3 hours and assayed for acrosome reaction using FITC-PSA. Following swim-up, sperm aliquots were pre-incubated for 30 minutes with rhZP3 (30 ng/ml), A23187 (positive control), culture medium from non-transfected PA-cells (NT) or sperm culture medium (negative controls). This was the initially selected dose of rhZP3 to be tested as it had proven to effect significant inhibition of sperm-zona binding in the HZA.
The dose-dependent effect of rhZP3 on acrosome reaction was examined in the swim-up fractions obtained from four different donors. The fractions were capacitated for 3 hours and exposed for 30 min to rhZP3 at final concentrations of 0, 7.5, 15, 30, 60, 120, 240, 480, 960 and 1920 ng/ml. The capacitation-dependency of the acrosome reaction-inducing activity of rhZP3 was assessed in the swim-up fractions of four ejaculates from four different donors. Capacitation times included: 0 (immediately post-swim-up), 1, 4, 8, 12 and 24 hours. After the capacitation period, rhZP3 was added to the sperm suspension at a final concentration of 30 ng/ml.
In another set of experiments, three different ejaculates were used to compare the effects of the rhZP3 (tested at 500 ng/ml) with those of solubilized zonae pellucidae and the calcium ionophore. Further, the induction of the acrosome reaction was assessed in parallel with FITC-PSA and transmission electron microscopy. The goal of these studies was to compare the morphological features of the acrosome reaction between agonists and also between the agonist-induced and basal exocytosis rates.

[4] = system: Gi proteins; test: Pertussis toxin pre-incubation before rhZP3-induced acrosome reaction; assay type: cell-based, human
Protocol: Experiment 3: Acrosome reaction-inducing activity of rhZP3: effect on Gi proteins—Motile sperm fractions were obtained from the ejaculates of three donors and incubated under capacitating conditions. In each experiment, the test aliquot was pre-incubated with pertussis toxin (100 ng/ml final concentration) for 4 hours followed by incubation with rhZP3 (500 ng/ml). A control aliquot was incubated in culture medium alone for 4 hours and then treated with rhZP3 at the same dose. After 30 min exposure to rhZP3 or control conditions, sperm were assayed for acrosome reaction using FITC-PSA.

Row | Molecule | % acrosome reacted-sperm ([1]; 4 h capacitation, 30 min) [%] | % sperm viability [1] | sperm motion parameters, treatment versus control [2] | live, acrosome reacted sperm ([3]; rhZP3 30 ng/ml, 3 h capacitation, 30 min exposure) [%] | induction of the acrosome reaction ([3]; rhZP3 500 ng/ml, solubilized zona 4 zona/10 μl) [%] | effect on basal rate of spontaneous acrosomal exocytosis ([4]; pertussis toxin 100 ng/ml) | effect on induction of the acrosome reaction by rhZP3 ([4]; pertussis toxin 100 ng/ml 4 h, then rhZP3 500 ng/ml 30 min)
1 | CNc1ccc2oc(C[C@H]3O[C@@]4(CC[C@H]3C)O[C@H]([C@H](C)C(=O)c3ccc[nH]3)[C@H](C)C[C@H]4C)nc2c1C(=O)O [Calcium ionophore, A23187, reference compound] | 22.5 | 96.5 (2.0) % | not significantly different | 19.4±4.1 | 34.7±5.2 |  | 
2 | pertussis toxin |  |  | not significantly different |  |  | did not modify the basal rate of spontaneous acrosomal exocytosis | inhibited the induction of the acrosome reaction by rhZP3
